Measured values as given in patent US9271978B2 (Zenith Epigenetics Corp., priority 2012, dated 2016).

Experiments:
Design in all cases: key: Active: Compounds with an IC50 value less than 30 μM were deemed to be active.; Not Active: Compounds with an IC50 value less than 30 μM were deemed to be active
[1] = biological target: T1, Brd4 bromodomain 1 (BRD4(1)) (Homo sapiens, UniProt O60885); assay: Inhibition of tetra-acetylated histone H4 binding to Brd4 bromodomain 1 (TR-FRET); conditions: tetra-acetylated histone H4 peptide, active = IC50 <30 μM
T1 construct: Illustrative results with the first bromodomain of Brd4; made in house; host or cells: E. coli BL21 (DE3)
Procedure, shortened: (§1)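 N-terminally His-tagged bromodomains (200 nM), expressed in E. coli, were incubated with biotinylated tetra-acetylated histone H4 peptide (25-50 nM), Eu-cryptate streptavidin and XL665 anti-His antibody in HEPES pH 7.4 buffer with KF, 0.2% DMSO, 2 h at room temperature. Inhibition read as decreased 665/620 nm TR-FRET; IC50 from dose-response curves.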

[2] = biological target: T2, second bromodomain of Brd2 (BRD2(2)) (Homo sapiens, UniProt P25440); assay: Inhibition of tetra-acetylated histone H4 binding to Brd2 bromodomain 2 (TR-FRET); conditions: tetra-acetylated histone H4 peptide, active = IC50 <30 μM
T2 construct: made in house; host or cells: E. coli BL21 (DE3)
Procedure, shortened: as §1

c-myc = assay: Inhibition of c-myc expression in MV4-11 cells (mRNA, real-time PCR); format: cell-based; conditions: Human AML MV4-11 cells, 3 h incubation
Description: MV4-11 cells (2.5×10^4 cells) were plated in 96 well U-bottom plates with test compound or DMSO (0.1%), and incubated for 3 h at 37° C. Cells were then harvested by centrifugation, lysed, and mRNA was isolated using the mRNA catcher plus kit (Invitrogen). Reverse transcription of the mRNA and duplex amplification of the c-myc and cyclophilin cDNAs was performed using the RNA Ultrasense kit (Invitrogen) and a ViiA7 real-time PCR machine (Applied Biosystems). IC50 values were determined from a dose response curve.

[3] = tested on: human AML MV-4-11 (CRL-9591) cells; assay: Inhibition of cell proliferation in MV4-11 cells; format: cell-based; conditions: human AML MV-4-11 cells, 72 h; active = IC50 <30 μM
Description: MV4-11 cells: 96-well plates were seeded with 5×10^4 cells per well of exponentially growing human AML MV-4-11 (CRL-9591) cells and immediately treated with two-fold dilutions of test compounds, ranging from 30 μM to 0.2 μM. Triplicate wells were used for each concentration, as well as a media only and three DMSO control wells. The cells and compounds were incubated at 37° C., 5% CO2 for 72 h before adding 20 μL of the CellTiter Aqueous One Solution (Promega) to each well and incubating at 37° C., 5% CO2 for an additional 3-4 h. The absorbance was taken at 490 nm in a spectrophotometer and the percentage of proliferation relative to DMSO-treated cells was calculated after correction from the blank well. IC50 were calculated using the GraphPad Prism software.

hIL-6 mRNA = assay: Inhibition of hIL-6 mRNA transcription in U937 cells; format: cell-based, human; conditions: LPS stimulation, active = IC50 <30 μM
Procedure, shortened: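 U937 cells differentiated 3 days with 60 ng/mL PMA, pretreated 1 h with compound, then stimulated with 1 ug/mL E. coli LPS for 3 h at 37° C. hIL-6 mRNA quantified by one-step qRT-PCR, Ct normalized to internal control, expressed as fold induction relative to control.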

T2 sequence (P25440 344-453 limits assumed): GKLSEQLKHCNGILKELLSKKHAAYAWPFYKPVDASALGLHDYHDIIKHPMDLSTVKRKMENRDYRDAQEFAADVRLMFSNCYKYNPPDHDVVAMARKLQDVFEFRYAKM

| FRET activity (IC50 <30 μM) BRD4(1) [1] | FRET activity (IC50 <30 μM) BRD2(2) [2] | c-myc activity (IC50 <30 μM) (c-myc) | Cell Proliferation activity (IC50 <30 μM) [3] | IL-6 activity (IC50 <30 μM) (hIL-6 mRNA) | Structure (SMILES) |
| --- | --- | --- | --- | --- | --- |
| Active | Active | Not Active | Active | Not Active | Cc1noc(C)c1-c1ccc(=O)n(Cc2ccccc2C(F)(F)F)n1 [Example 94, 6-(3,5-Dimethylisoxazol-4-yl)-2-(2-(trifluoromethyl)benzyl)pyridazin-3(2H)-one] |
| Active | Active | Active | Active | Active | Cc1noc(C)c1-c1cc(F)c(=O)n(Cc2ccccc2)c1 [Example 63, 1-Benzyl-5-(3,5-dimethylisoxazol-4-yl)-3-fluoropyridin-2(1H)-one] |
| Active | Active | Active | Active | Active | Cc1noc(C)c1-c1ccc(=O)n(C(C)c2ccc(F)cc2)c1 (centres unmarked) [Example 101, 5-(3,5-Dimethylisoxazol-4-yl)-1-(1-(4-fluorophenyl)ethyl)pyridin-2(1H)-one] |
| Active | Active | Not Active | Active | Not Active | Cc1noc(C)c1-c1ccc(=O)n(Cc2ccccc2F)n1 [Example 93, 6-(3,5-Dimethylisoxazol-4-yl)-2-(2-fluorobenzyl)pyridazin-3(2H)-one] |
| Active | Active | Active | Active | Active | Cc1noc(C)c1-c1ccc(=O)n(Cc2cccc(Cl)c2)c1 [Example 126, 1-(3-Chlorobenzyl)-5-(3,5-dimethylisoxazol-4-yl)pyridin-2(1H)-one] |
| Active | Active | Not Active | Active | Not Active | COc1cc(-c2ccc(=O)n(Cc3ccc(C(C)(C)C)cc3)n2)cc(OC)c1OC [Example 120, 2-(4-(tert-Butyl)benzyl)-6-(3,4,5-trimethoxyphenyl)pyridazin-3(2H)-one] |
| Active |  | Active | Active | Active | Cc1noc(C)c1-c1cc(N)c(=O)n(Cc2ccc(N3CCC3)cc2)c1 [Example 237, 3-Amino-1-(4-(azetidin-1-yl)benzyl)-5-(3,5-dimethylisoxazol-4-yl)pyridin-2(1H)-one] |
| Active |  | Active | Active | Active | Cc1noc(C)c1-c1cc(N)c(=O)n(Cc2cccc3ncccc23)c1 [Example 274, 3-amino-5-(3,5-dimethylisoxazol-4-yl)-1-(quinolin-5-ylmethyl)pyridin-2(1H)-one] |
| Active |  | Active | Active | Active | Cc1noc(C)c1-c1cc(N)c(=O)n(Cc2cncc(Cl)c2)c1 [Example 252, 3-amino-1-((5-chloropyridin-3-yl)methyl)-5-(3,5-dimethylisoxazol-4-yl)pyridin-2(1H)-one] |
| Active |  | Active | Active | Active | COc1cncc(Nc2cc(-c3c(C)noc3C)cn(Cc3ccccc3)c2=O)c1 [Example 231] |
| Active |  | Active | Active | Active | Cc1noc(C)c1-c1cc(N)c(=O)n(Cc2ccc(Br)c(C#N)c2)c1 [Example 272, 5-((3-amino-5-(3,5-dimethylisoxazol-4-yl)-2-oxopyridin-1(2H)-yl)methyl)-2-bromobenzonitrile] |
| Active |  | Active | Active | Active | Cc1cc(Cn2cc(-c3c(C)noc3C)cc(N)c2=O)on1 [Example 240, 3-amino-5-(3,5-dimethylisoxazol-4-yl)-1-((3-methylisoxazol-5-yl)methyl)pyridin-2(1H)-one] |
| Active |  | Not Active | Not Active | Not Active | COCc1noc(C)c1-c1ccc(=O)n(Cc2ccccc2)c1 [Example 187, 1-benzyl-5-(3-(methoxymethyl)-5-methylisoxazol-4-yl)pyridin-2(1H)-one] |
| Active |  | Not Active | Not Active | Active | Cc1noc(C)c1-c1cc(Nc2ccccc2)c(=O)n(Cc2ccc(Cl)cc2)c1 [Example 188, 1-(4-chlorobenzyl)-5-(3,5-dimethylisoxazol-4-yl)-3-(phenylamino)pyridin-2(1H)-one] |
| Active |  | Active | Active | Active | Cc1noc(C)c1-c1cc(N)c(=O)n(Cc2ccc(N3CCOCC3)cc2)c1 [Example 238, 3-Amino-5-(3,5-dimethylisoxazol-4-yl)-1-(4-morpholinobenzyl)pyridin-2(1H)-one] |
| Active |  | Active | Active | Active | Cc1noc(C)c1-c1cc(N)c(=O)n(Cc2ccc(C#N)s2)c1 [Example 264, 5-((3-amino-5-(3,5-dimethylisoxazol-4-yl)-2-oxopyridin-1(2H)-yl)methyl)thiophene-2-carbonitrile] |
| Active |  | Active | Active | Active | Cc1cc(Cn2cc(-c3c(C)noc3C)cc(N)c2=O)c(C)s1 [Example 251, 3-amino-5-(3,5-dimethylisoxazol-4-yl)-1-((2,5-dimethylthiophen-3-yl)methyl)pyridin-2(1H)-one] |
| Active |  | Active | Active | Active | Cc1noc(C)c1-c1cc(N)c(=O)n(Cc2ccc3c(c2)OCO3)c1 [Example 256, 3-amino-1-(benzo[d][1,3]dioxol-5-ylmethyl)-5-(3,5-dimethylisoxazol-4-yl)pyridin-2(1H)-one] |
| Active |  | Active | Active | Active | Cc1noc(C)c1-c1cc(N)c(=O)n(Cc2ccc(C(C)C)cc2)c1 [Example 242, 3-Amino-5-(3,5-dimethylisoxazol-4-yl)-1-(4-isopropylbenzyl)pyridin-2(1H)-one] |

| Structure (SMILES) | FRET activity (IC50 <30 μM) BRD4(1) [1] | FRET activity (IC50 <30 μM) BRD2(2) [2] | c-myc activity (IC50 <30 μM) (c-myc) | Cell Proliferation activity (IC50 <30 μM) [3] | IL-6 activity (IC50 <30 μM) (hIL-6 mRNA) |
| --- | --- | --- | --- | --- | --- |
| Cc1noc(C)c1-c1cc(N)c(=O)n(Cc2ccc(C#N)c(Br)c2)c1 [Example 273, 4-((3-amino-5-(3,5-dimethylisoxazol-4-yl)-2-oxopyridin-1(2H)-yl)methyl)-2-bromobenzonitrile] | Active |  | Active | Active | Active |
